This is an account of results in PubChem BioAssay AID328 (DTP/NCI, 2004).

In the assay the test system is BDF1 mice, P388 leukemia ip, median survival T/C. Put plainly: NCI In Vivo Anticancer Drug Screen. Data for tumor model P388 Leukemia (intraperitoneal) in B6D2F1 (BDF1) mice. The settings on record: endpoint: median survival time, higher = longer survival. The gist of the method: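 Mice carrying the transplantable tumour receive compound or vehicle. Survival is followed in each arm, and the treated measure is divided by the vehicle measure.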

[1] abbreviates: dose: 6.25 mg/kg/injection, schedule: Q01DX009 (ip), vehicle: saline.
Setting [2] is: dose: 100.0 mg/kg/injection, schedule: Q01DX009 (ip), vehicle: saline with Tween-80.
Setting [3] is: dose: 200.0 mg/kg/injection, schedule: Q01DX009 (ip), vehicle: saline with Tween-80.
[4] abbreviates: dose: 12.5 mg/kg/injection, schedule: Q01DX009 (ip), vehicle: saline.

Several values for one entry are separate records, joined by “and”; a condition that tells them apart may be missing. Equal entries are not always repeated. Toxic doses and inconclusive results are not listed.

For `CCOC/C(C)=C/Cl`, the T/C by setting is: (dose: 50.0 mg/kg/injection, schedule: Q01DX009 (ip), vehicle: acetone) 104 % of control; (dose: 100.0 mg/kg/injection, schedule: Q01DX009 (ip), vehicle: acetone) 116 % of control; (dose: 200.0 mg/kg/injection, schedule: Q01DX009 (ip), vehicle: acetone) 112 % of control.

On to `Clc1nc2n[nH]nc2nc1Cl`, for which the T/C is 100 % of control (dose: 3.13 mg/kg/injection, schedule: Q01DX009 (ip), vehicle: saline) and 95 % of control under setting [1].

As to `[N-]=[N+]=CC(=O)NCC(=O)NN`, the T/C by setting is: (dose: 50.0 mg/kg/injection, schedule: Q01DX010 (ip), vehicle: water) 120 % of control; (dose: 200.0 mg/kg/injection, schedule: Q01DX010 (ip), vehicle: water) 166 % of control and 175 % of control; (dose: 400.0 mg/kg/injection, schedule: Q01DX010 (ip), vehicle: saline) 181 % of control.

`Nc1cc(S(=O)(=O)c2ccc(O)c(N)c2)ccc1O`: the T/C is 104 % of control under setting [2]; 100 % of control (dose: 100.0 mg/kg/injection, schedule: Q04DX003 (ip), vehicle: saline with Tween-80); 108 % of control under setting [3]; 95 % of control (dose: 200.0 mg/kg/injection, schedule: Q04DX003 (ip), vehicle: saline with Tween-80); 87 % of control (dose: 400.0 mg/kg/injection, schedule: Q01DX009 (ip), vehicle: saline with Tween-80); 87 % of control (dose: 400.0 mg/kg/injection, schedule: Q04DX003 (ip), vehicle: saline with Tween-80).

Turning to `CN=S(=O)(OCCN(C)CCOS(=O)(=NC)c1ccc(C)cc1)c1ccc(C)cc1` (stereo unspecified), the T/C is, setting by setting: (dose: 50.0 mg/kg/injection, schedule: Q01DX009 (ip), vehicle: saline + alcohol) 112 % of control; (dose: 100.0 mg/kg/injection, schedule: Q01DX009 (ip), vehicle: saline + alcohol) 103 % of control; (dose: 200.0 mg/kg/injection, schedule: Q01DX009 (ip), vehicle: saline + alcohol) 116 % of control.

On to `C[N+](C)(C)CC[N+](C)(C)C`, for which the T/C is, setting by setting: (dose: 100.0 mg/kg/injection, schedule: Q01DX009 (ip), vehicle: saline) 93 % of control; (dose: 100.0 mg/kg/injection, schedule: Q04DX003 (ip), vehicle: saline) 93 % of control; (dose: 200.0 mg/kg/injection, schedule: Q01DX009 (ip), vehicle: saline) 101 % of control; (dose: 200.0 mg/kg/injection, schedule: Q04DX003 (ip), vehicle: saline) 118 % of control; (dose: 400.0 mg/kg/injection, schedule: Q01DX009 (ip), vehicle: saline) 93 % of control; (dose: 400.0 mg/kg/injection, schedule: Q04DX003 (ip), vehicle: saline) 107 % of control.

For `CCCCCCCCNc1ccccc1`, the T/C was 87 % of control (dose: 100.0 mg/kg/injection, schedule: Q01DX001 (ip), vehicle: saline sonified) and 91 % of control (dose: 400.0 mg/kg/injection, schedule: Q01DX001 (ip), vehicle: saline sonified).

Take `CN(C)c1ccc(/C=C2\SC(=S)N(Cc3ccco3)C2=O)cc1`: the T/C is 92 % of control (dose: 50.0 mg/kg/injection, schedule: Q01DX009 (ip), vehicle: saline with Tween-80); 91 % of control under setting [2]; 88 % of control under setting [3].

With `N#Cc1c(N)sc(N)c1C#N`, the T/C by setting is: (dose: 200.0 mg/kg/injection, schedule: Q01DX009 (ip), vehicle: Klucel (hydroxypropylcellulose) (HPC)) 115 % of control; (dose: 400.0 mg/kg/injection, schedule: Q01DX009 (ip), vehicle: Klucel (hydroxypropylcellulose) (HPC)) 110 % of control.

`COC(/C=C\C(OC)OC)OC`: the T/C reads like this: (dose: 4.1 mg/kg/injection, schedule: Q01DX009 (ip), vehicle: saline) 109 % of control; (dose: 4.17 mg/kg/injection, schedule: Q01DX009 (ip), vehicle: saline) 100 % of control; under setting [1], 100 % of control and 122 % of control; (dose: 9.3 mg/kg/injection, schedule: Q01DX009 (ip), vehicle: saline) 122 % of control; (dose: 9.37 mg/kg/injection, schedule: Q01DX009 (ip), vehicle: saline) 95 % of control; under setting [4], 112 % of control. Besides, the T/C reads like this: (dose: 18.75 mg/kg/injection, schedule: Q04DX003 (ip), vehicle: saline) 110 % of control; (dose: 25.0 mg/kg/injection, schedule: Q01DX009 (ip), vehicle: saline) 112 % of control; (dose: 37.5 mg/kg/injection, schedule: Q04DX003 (ip), vehicle: saline) 105 % of control.

Turning to `COC1CC(C)C(OC)C2=CC(=O)C=C(NC(=O)/C(C)=C/C=C\C(C)C(OC(N)=O)/C(C)=C\C(C)C1OC)C2=O` (stereo unspecified), the T/C (dose: 5.0 mg/kg/injection, schedule: Q01DX009 (ip), vehicle: saline + alcohol) was 150 % of control and the T/C (dose: 10.0 mg/kg/injection, schedule: Q01DX009 (ip), vehicle: saline + alcohol) was 171 % of control.

As to `OCCN1CCN(CC/C=C2\c3ccccc3Sc3ccc(Cl)cc32)CC1`, the T/C is 114 % of control under setting [1] and 114 % of control under setting [4].

Take `CCCCCCCCCCCCCC(=O)O[C@@H]1[C@@H](C)[C@@]2(O)[C@@H](C=C(CO)C[C@]3(O)C(=O)C(C)=C[C@@H]23)[C@@H]2C(C)(C)[C@]12OC(C)=O`: the T/C was 110 % of control (dose: 0.03 mg/kg/injection, schedule: Q01DX009 (ip), vehicle: Klucel (hydroxypropylcellulose) (HPC)); 108 % of control (dose: 0.03 mg/kg/injection, schedule: Q01DX009 (ip), vehicle: saline + alcohol); 100 % of control (dose: 0.06 mg/kg/injection, schedule: Q01DX009 (ip), vehicle: Klucel (hydroxypropylcellulose) (HPC)); 110 % of control (dose: 0.06 mg/kg/injection, schedule: Q01DX009 (ip), vehicle: saline + alcohol); 110 % of control (dose: 0.12 mg/kg/injection, schedule: Q01DX009 (ip), vehicle: Klucel (hydroxypropylcellulose) (HPC)); 117 % of control (dose: 0.12 mg/kg/injection, schedule: Q01DX009 (ip), vehicle: saline + alcohol). In addition, the T/C runs as follows: (dose: 0.25 mg/kg/injection, schedule: Q01DX009 (ip), vehicle: Klucel (hydroxypropylcellulose) (HPC)) 92 % of control; (dose: 0.25 mg/kg/injection, schedule: Q01DX009 (ip), vehicle: saline + alcohol) 116 % of control; (dose: 0.5 mg/kg/injection, schedule: Q01DX009 (ip), vehicle: Klucel (hydroxypropylcellulose) (HPC)) 100 % of control; (dose: 0.5 mg/kg/injection, schedule: Q01DX009 (ip), vehicle: saline + alcohol) 104 % of control; (dose: 1.0 mg/kg/injection, schedule: Q01DX009 (ip), vehicle: Klucel (hydroxypropylcellulose) (HPC)) 108 % of control; (dose: 3.1 micrograms/kg/injection, schedule: Q01DX009 (ip), vehicle: gum acacia) 97 % of control and 108 % of control. Also, the T/C reads like this: (dose: 3.1 micrograms/kg/injection, schedule: Q01DX009 (ip), vehicle: saline with Tween-80) 105 % of control; (dose: 6.2 micrograms/kg/injection, schedule: Q01DX009 (ip), vehicle: gum acacia) 94 % of control; (dose: 6.2 micrograms/kg/injection, schedule: Q01DX009 (ip), vehicle: saline with Tween-80) 109 % of control; (dose: 12.5 micrograms/kg/injection, schedule: Q01DX009 (ip), vehicle: gum acacia) 106 % of control; (dose: 12.5 micrograms/kg/injection, schedule: Q01DX009 (ip), vehicle: saline with Tween-80) 104 % of control; (dose: 25.0 micrograms/kg/injection, schedule: Q01DX009 (ip), vehicle: gum acacia) 103 % of control and 118 % of control. Moreover, the T/C by setting is: (dose: 25.0 micrograms/kg/injection, schedule: Q01DX009 (ip), vehicle: saline with Tween-80) 109 % of control; (dose: 50.0 micrograms/kg/injection, schedule: Q01DX009 (ip), vehicle: gum acacia) 97 % of control and 108 % of control and 116 % of control; (dose: 50.0 micrograms/kg/injection, schedule: Q01DX009 (ip), vehicle: saline with Tween-80) 114 % of control; (dose: 100.0 micrograms/kg/injection, schedule: Q01DX009 (ip), vehicle: gum acacia) 106 % of control and 108 % of control; (dose: 100.0 micrograms/kg/injection, schedule: Q01DX009 (ip), vehicle: saline with Tween-80) 113 % of control; (dose: 200.0 micrograms/kg/injection, schedule: Q01DX009 (ip), vehicle: gum acacia) 101 % of control and 103 % of control and 113 % of control. Also, the T/C (dose: 200.0 micrograms/kg/injection, schedule: Q01DX009 (ip), vehicle: saline with Tween-80) is 97 % of control; the T/C (dose: 400.0 micrograms/kg/injection, schedule: Q01DX009 (ip), vehicle: gum acacia) is 103 % of control; the T/C (dose: 400.0 micrograms/kg/injection, schedule: Q01DX009 (ip), vehicle: saline with Tween-80) was 103 % of control; the T/C (dose: 800.0 micrograms/kg/injection, schedule: Q01DX009 (ip), vehicle: gum acacia) is 100 % of control and 106 % of control.
